A short description of series [1]: Abstinence syndrome / physical dependency on withdrawal after repeated administration (body weight decrease). The class given is in vivo, male rats of Wistar strain. The conditions noted are these: rats; for physical dependency: orally or subcutaneously everyday for over one month; for Abstinence syndrome: subcutaneous twice a day, body weight decrease on the day after drug withdrawal. Set-up: key to Abstinence syndrome: +++: severe decrease (about 5% decrease); ++: moderate decrease; +: mild decrease; -: no decrease. As to the method:
(§1) On account of this addiction liability, these analgesics are severely restricted in a therapeutic use.
Note: Groups of male rats of Wistar strain (body weight, 150 g), each group consisting of 20 male rats, were subcutaneously given the test compound twice a day for 4 consecutive weeks. On the next day after drug withdrawal, the body weight was measured. The symbols have the following meanings: +++, severe decrease (about 5% decrease); ++, moderate decrease; +, mild decrease; -, no decrease.

A short description of series [2]: Subcutaneous writhing test (acetic acid). The class given is in vivo, mice. The conditions noted are these: for ED50: Mus musculus, sc, mice, subcutaneous 20 minutes before acetic acid, Litchfeld-Wilcoxon's method; for analgesic activity: in words; for analgesic action compared with pentazocine: subcutaneous writhing test, versus pentazocine. As to the method:
[…]. Note: The test was based on the specific anatagonism of the test compound to the typical syndrome produced by intraperitoneal injection of 0.6% aqueous acetic acid. The syndrome was characterized by intermittent contractions of the abdomen, twisting and turning of the trunk and extension of the hind legs. A group of 5 mice was used for each dose level. The test compound was administered subcutaneously 20 minutes before the injection of acetic acid. […] The ED50 value was calculated according to the Litchfeld-Wilcoxon's method.
In general terms: An intraperitoneal irritant provokes the stretching counted in writhing tests.

Series [3] in a line: Addiction / drug dependency in (long term) animal tests. Type of series: in vivo.
Source text: Hitherto, many benzomorphan derivatives (e.g., phenazocine, pentazocine) have been developed as analgesic drugs but most of them have addiction and produce narcotic symptoms at their usual dosages.
as §1

The conditions of series [4]: cited from earlier work.

The source of these data is patent US3966939A, “Novel 2-substituted 6,7-benzomorphan derivatives and salts thereof in analgesic compositions” (Sumitomo Chemical Company, Limited, priority 1972, dated 1976).

As to `CCC12CCN(CCSC)C(Cc3ccc(O)cc31)C2` (stereo not drawn) [2'-Hydroxy-2-(β-methylthioethyl)-5-ethyl-6,7-benzomorphan], the physical dependency result in series [1] is on record as “did not produce any physical dependency”. In addition, the Abstinence syndrome result in series [1] (20 mg/kg/day for 4 weeks) is “-”. In addition, in series [2], it took a dose of 0.34 mg/kg to reach the 50% effect level (ED50), the analgesic activity result was “strong analgesic activity” and the “analgesic action compared with pentazocine” value is on record as “much more potent analgesic action than pentazocine”. For the same compound, the “addiction in long term animal tests” value in series [3] is listed as “do not show addiction”.
As for `CCC1C2Cc3ccc(O)cc3C1(CC)CCN2CCSC` (stereo not drawn) [2'-Hydroxy-2-(β-methylthioethyl)-5,9-diethyl-6,7-benzomorphan], the physical dependency result in series [1] is “did not produce any physical dependency”. Also, the Abstinence syndrome result in series [1] (40 mg/kg/day for 4 weeks) is “-”. Further, in series [3], the “addiction in long term animal tests” value is given as “do not show addiction”.
As to `CC1C2Cc3ccc(O)cc3C1(C)CCN2C` (stereo not drawn) [2'-Hydroxy-2,5,9-trimethyl-6,7-benzomorphan], the Abstinence syndrome result in series [1] (20 mg/kg/day for 4 weeks) is on record as “++”. The “analgesic activity (known)” value in series [4] (U.S. Pat. No. 3,138,603) is on record as “potent analgesic activity”. In addition, the “addiction liability (known)” value in series [4] (prior benzomorphan derivatives) was “show an addition liability”.
On to `CSCCN1CCC2(C)c3cc(O)ccc3CC1C2C` (stereo not drawn) [2'-Hydroxy-2-(β-methylthioethyl)-5,9-dimethyl-6,7-benzomorphan], for which the physical dependency entry in series [1] is on record as “did not produce any physical dependency”. For the same compound, the Abstinence syndrome result in series [1] (40 mg/kg/day for 4 weeks) is given as “-”. Besides, in series [2], the 50% effect level (ED50) was put at a dose of 3.1 mg/kg, the analgesic activity result is given as “strong analgesic activity” and the “analgesic action compared with pentazocine” value is “much more potent analgesic action than pentazocine”. Also, the “addiction in long term animal tests” value in series [3] is “do not show addiction”.
Regarding `CC(C)SCCN1CCC2(C)c3cc(O)ccc3CC1C2C` (stereo not drawn) [2'-Hydroxy-2-(β-isopropylthioethyl)-5,9-dimethyl-6,7-benzomorphan], in series [2], the 50% effect level (ED50) was put at a dose of 3.6 mg/kg, the analgesic activity entry is given as “strong analgesic activity” and the “analgesic action compared with pentazocine” value was “much more potent analgesic action than pentazocine”.

As usually defined, the ED50 is the dose that gives a 50% effect, or the effect in half of the subjects.
